{
  "source": "patent US7026281B1",
  "about": "“Antagonistic analogs of GH-RH inhibiting IGF-I and -II” (The Administrators of the Tulane Educational Fund, priority 1998, dated 2006)",
  "key": {"[1]": {"test_system": "GH release stimulated by hGH-RH(1–29)NH2", "assay": "In vivo inhibition of serum GH response in rats", "set-up": "species or system rat", "conditions": "for Inhibition of the GH release stimulated by hGH-RH(1–29)NH2 (in words): 80 μg/kg i.v., rats", "method_in_brief": "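Male Sprague-Dawley rats (200–250 g) under Nembutal received antagonist at 80 μg/kg i.v., then GH-RH(1–29)NH2 at 3 μg/kg after 5, 15, 30 or 60 min; controls received vehicle (5.5% mannitol). GH was measured by RIA before antagonist and 5 min after GH-RH, and inhibition was calculated as […].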"}, "[2]": {"test_system": "Estrogen independent MXT mouse mammary tumors", "assay": "MXT mouse mammary tumors in BDF mice", "assay_type": "in vivo", "conditions": "for Tumor weights: day 18; for Number of surviving mice: groups of 10", "description": "Estrogen independent MXT tumors were transplanted sc. to female BDF mice. One day after transplantation, the mice were divided into groups of 10 animals each, and the treatment was started. The mice in groups 1, 2, 3, and 4 received single injections daily of various GH-RH antagonists sc. at 20 μg dose per day for 18 days. In groups 5 and 6, the peptides were administered by Alzet osmotic pumps releasing a daily amount of 20 μg peptide. Tumors were measured regularly, and tumor volume was calculated. The mice were sacrificed on day 18 and tumor weights were measured."}, "[3]": {"target": "T1, rat pituitary GH-RH receptors (Rattus norvegicus, UniProt Q02644)", "T1 construct": "from tissue; host or cells: anterior pituitary of male Sprague-Dawley rats, crude membrane homogenates", "T1 sequence (Q02644 23-464)": "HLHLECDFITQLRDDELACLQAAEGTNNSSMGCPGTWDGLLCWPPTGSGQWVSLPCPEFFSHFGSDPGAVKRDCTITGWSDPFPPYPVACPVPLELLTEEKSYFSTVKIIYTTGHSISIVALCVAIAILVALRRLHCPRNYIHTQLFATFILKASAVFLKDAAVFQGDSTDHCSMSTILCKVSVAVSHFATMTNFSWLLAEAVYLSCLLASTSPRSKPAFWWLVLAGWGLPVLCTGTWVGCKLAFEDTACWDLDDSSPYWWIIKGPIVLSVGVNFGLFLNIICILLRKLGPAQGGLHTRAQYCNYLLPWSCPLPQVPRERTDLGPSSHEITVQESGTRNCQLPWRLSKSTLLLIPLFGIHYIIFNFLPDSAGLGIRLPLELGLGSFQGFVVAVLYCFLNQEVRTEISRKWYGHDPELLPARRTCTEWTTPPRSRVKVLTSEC", "assay": "GH-RH radioreceptor binding assay, rat anterior pituitary membrane homogenates", "conditions": "for Ki: competition with [His1,125I-Tyr10,Nle27]hGH-RH(1–32)NH2; for R.A. (relative affinity compared to Standard antagonist): ratio of Ki values", "method_in_brief": "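Antagonists competed with [His^1,^125I-Tyr^10,Nle^27]hGH-RH(1–32)NH2 for binding to crude anterior pituitary membranes from male Sprague-Dawley rats, with γ-counting of the pellet. Ki came from Munson–Rodbard analysis. Relative affinity is the Ki of the test antagonist divided by the Ki of standard [Ac-Tyr^1,D-Arg^2]hGH-RH(1–29)NH2.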"}, "[4]": {"conditions": "antagonist 80 μg/kg i.v. 5 min before GH-RH"}, "[5]": {"conditions": "antagonist 80 μg/kg i.v. 15 min before GH-RH"}, "[6]": {"conditions": "antagonist 80 μg/kg i.v. 15 min before GH-RH 3 μg/kg"}, "[7]": {"conditions": "antagonist 80 μg/kg i.v. 30 min before GH-RH"}, "[8]": {"conditions": "antagonist 80 μg/kg i.v. 30 min before GH-RH 3 μg/kg"}, "[9]": {"conditions": "antagonist 80 μg/kg i.v. 60 min before GH-RH"}, "[10]": {"conditions": "antagonist 80 μg/kg i.v. 60 min before GH-RH 3 μg/kg"}, "[11]": {"conditions": "rGH=GHblood1/GHblood0, antagonist 80 μg/kg i.v. 5 min before GH-RH 3 μg/kg"}, "[12]": {"conditions": "Alzet osmotic pump, 20 μg daily"}, "[13]": {"conditions": "single daily sc. injections, 20 μg per day"}},
  "note": "Marks after values point to notes of the source that are not given here. Square brackets hold non-standard residues; d marks the D form. Peptide text beside a SMILES is read from it. * marks the point of attachment. Phe(4-Cl) = N[C@@H](Cc1ccc(Cl)cc1)C(=O)O; hArg = N=C(N)NCCCC[C@H](N)C(=O)O; Nle = CCCC[C@H](N)C(=O)O; Abu = CC[C@H](N)C(=O)O; PhAc = O=C(Cc1ccccc1)*",
  "data": [
    {"compound": "CCCC[C@H](NC(=O)[C@@H](NC(=O)[C@H](CC(=O)O)NC(=O)[C@H](CCC(N)=O)NC(=O)[C@H](CC(C)C)NC(=O)[C@H](CC(C)C)NC(=O)[C@H](CCCCN)NC(=O)[C@H](CCCNC(=N)N)NC(=O)[C@H](C)NC(=O)[C@H](CO)NC(=O)[C@H](CC(C)C)NC(=O)[C@H](CCC(N)=O)NC(=O)[C@H](CC)NC(=O)[C@H](CC(C)C)NC(=O)[C@@H](NC(=O)[C@H](CCCCN)NC(=O)[C@H](CCCNC(=N)N)NC(=O)[C@H](Cc1ccc(O)cc1)NC(=O)[C@H](CCCNC(=N)N)NC(=O)[C@H](CC(N)=O)NC(=O)[C@@H](NC(=O)[C@H](Cc1ccc(Cl)cc1)NC(=O)[C@@H](NC(=O)[C@H](C)NC(=O)[C@H](CC(=O)O)NC(=O)[C@@H](CCCNC(=N)N)NC(=O)[C@H](Cc1ccc(O)cc1)NC(=O)Cc1ccccc1)[C@@H](C)CC)[C@@H](C)O)C(C)C)[C@@H](C)CC)C(=O)N[C@H](CCCNC(=N)N)C(=O)N[C@@H](CCCCNC(=N)N)C(N)=O", "note": "[Peptide 1, [PhAc^0, D-Arg^2, Phe(pCl)^6, Arg^9, Abu^15, Nle^27, D-Arg^28, Har^29]hGH-RH(1–29)NH2] (PhAc-Y[dR]DAI[Phe(4-Cl)]TNRYRKVL[Abu]QLSARKLLQDI[Nle][dR][hArg]-NH2)", "values": [
      {"measurement": "Inhibition of the GH release stimulated by hGH-RH(1–29)NH2 (in words)", "setting": "[1]", "value": "strong and long-lasting inhibition"},
      {"measurement": "Relative inhibition % of GH response", "setting": "[1]; [4]", "value": 95, "unit": "%"},
      {"measurement": "Relative inhibition % of GH response", "setting": "[1]; [5]", "value": 68, "unit": "%"},
      {"measurement": "GH response mean ± S.E.M.", "setting": "[1]; [6]", "value": "1.87 ± 0.13"},
      {"measurement": "Relative inhibition % of GH response", "setting": "[1]; [7]", "value": 64, "unit": "%"},
      {"measurement": "GH response mean ± S.E.M.", "setting": "[1]; [8]", "value": "1.97 ± 0.16"},
      {"measurement": "Relative inhibition % of GH response", "setting": "[1]; [9]", "value": "−8", "unit": "%"},
      {"measurement": "GH response mean ± S.E.M.", "setting": "[1]; [10]", "value": "3.89 ± 0.65"},
      {"measurement": "GH response mean ± S.E.M.", "setting": "[1]; [11]", "value": "1.13 ± 0.13"},
      {"measurement": "Tumor volume (mm^3) On day 14", "setting": "[2]; [12]", "value": "1329 ± 327** mm^3"},
      {"measurement": "Tumor volume (mm^3) On day 18", "setting": "[2]; [12]", "value": "3403 ± 584** mm^3"},
      {"measurement": "Tumor weights", "setting": "[2]; [12]", "value": "4810 ± 645", "unit": "mg"},
      {"measurement": "Number of surviving mice", "setting": "[2]; [12]", "value": 7},
      {"measurement": "Tumor volume (mm^3) On day 14", "setting": "[2]; [13]", "value": "2924 ± 654", "unit": "mm^3"},
      {"measurement": "Tumor volume (mm^3) On day 18", "setting": "[2]; [13]", "value": "4373 ± 381** mm^3"},
      {"measurement": "Tumor weights", "setting": "[2]; [13]", "value": "6964 ± 676", "unit": "mg"},
      {"measurement": "Number of surviving mice", "setting": "[2]; [13]", "value": 6},
      {"measurement": "Ki", "setting": "[3]", "value": 0.044, "unit": "nM"},
      {"measurement": "R.A. (relative affinity compared to Standard antagonist)", "setting": "[3]", "value": 67}
    ]},
    {"compound": "CCCC[C@H](NC(=O)[C@@H](NC(=O)[C@H](CC(=O)O)NC(=O)[C@H](CCC(N)=O)NC(=O)[C@H](CC(C)C)NC(=O)[C@H](CC(C)C)NC(=O)[C@H](CCCCN)NC(=O)[C@H](CCCNC(=N)N)NC(=O)[C@H](C)NC(=O)[C@H](CO)NC(=O)[C@H](CC(C)C)NC(=O)[C@H](CCC(N)=O)NC(=O)[C@H](CC)NC(=O)[C@H](CC(C)C)NC(=O)[C@@H](NC(=O)[C@H](CCCCN)NC(=O)[C@H](CCCNC(=N)N)NC(=O)[C@H](Cc1ccc(OC)cc1)NC(=O)[C@H](CCCCNC(=N)N)NC(=O)[C@H](CC(N)=O)NC(=O)[C@@H](NC(=O)[C@H](Cc1ccc(Cl)cc1)NC(=O)[C@@H](NC(=O)[C@H](C)NC(=O)[C@H](CC(=O)O)NC(=O)[C@@H](CCCNC(=N)N)NC(=O)[C@H](Cc1ccc(O)cc1)NC(=O)Cc1ccccc1)[C@@H](C)CC)[C@@H](C)O)C(C)C)[C@@H](C)CC)C(=O)N[C@H](CCCNC(=N)N)C(=O)N[C@@H](CCCCNC(=N)N)C(N)=O", "note": "[Peptide 3, [PhAc^0, D-Arg^2, Phe(pCl)^6, Har^9, Tyr(Me)^10, Abu^15, Nle^27, D-Arg^28, Har^29]hGH-RH(1–29)NH2] (PhAc-Y[dR]DAI[Phe(4-Cl)]TN[hArg]Y(Me)RKVL[Abu]QLSARKLLQDI[Nle][dR][hArg]-NH2)", "values": [
      {"measurement": "Inhibition of the GH release stimulated by hGH-RH(1–29)NH2 (in words)", "setting": "[1]", "value": "strong and long-lasting inhibition"},
      {"measurement": "Relative inhibition % of GH response", "setting": "[1]; [4]", "value": 68, "unit": "%"},
      {"measurement": "Relative inhibition % of GH response", "setting": "[1]; [5]", "value": 61, "unit": "%"},
      {"measurement": "GH response mean ± S.E.M.", "setting": "[1]; [6]", "value": "3.63 ± 0.80"},
      {"measurement": "Relative inhibition % of GH response", "setting": "[1]; [7]", "value": 41, "unit": "%"},
      {"measurement": "GH response mean ± S.E.M.", "setting": "[1]; [8]", "value": "4.89 ± 0.95"},
      {"measurement": "Relative inhibition % of GH response", "setting": "[1]; [9]", "value": 34, "unit": "%"},
      {"measurement": "GH response mean ± S.E.M.", "setting": "[1]; [10]", "value": "5.36 ± 0.63"},
      {"measurement": "GH response mean ± S.E.M.", "setting": "[1]; [11]", "value": "3.01 ± 0.41"},
      {"measurement": "Tumor volume (mm^3) On day 14", "setting": "[2]; [12]", "value": "1688 ± 220** mm^3"},
      {"measurement": "Tumor volume (mm^3) On day 18", "setting": "[2]; [12]", "value": "4272 ± 295** mm^3"},
      {"measurement": "Tumor weights", "setting": "[2]; [12]", "value": "5939 ± 453", "unit": "mg"},
      {"measurement": "Number of surviving mice", "setting": "[2]; [12]", "value": 8},
      {"measurement": "Tumor volume (mm^3) On day 14", "setting": "[2]; [13]", "value": "1902 ± 349** mm^3"},
      {"measurement": "Tumor volume (mm^3) On day 18", "setting": "[2]; [13]", "value": "3465 ± 607** mm^3"},
      {"measurement": "Tumor weights", "setting": "[2]; [13]", "value": "5266 ± 906", "unit": "mg"},
      {"measurement": "Number of surviving mice", "setting": "[2]; [13]", "value": 8},
      {"measurement": "Ki", "setting": "[3]", "value": 0.068, "unit": "nM"},
      {"measurement": "R.A. (relative affinity compared to Standard antagonist)", "setting": "[3]", "value": 43}
    ]}
  ]
}
